Test results published in patent publication US8450313B2, “2,3-diaryl- or heteroaryl-substituted 1,1,1-trifluoro-2-hydroxypropyl compounds” (Hoffmann-La Roche Inc., priority 2009, dated 2013).

Target: T1, full length human recombinant glucocorticoid receptor (Homo sapiens, UniProt P04150)
T1 construct: It contains some partially purified full length human recombinant glucocorticoid receptor; purchased Panvera/Invitrogen PV4302
T1 sequence (P04150 1-777): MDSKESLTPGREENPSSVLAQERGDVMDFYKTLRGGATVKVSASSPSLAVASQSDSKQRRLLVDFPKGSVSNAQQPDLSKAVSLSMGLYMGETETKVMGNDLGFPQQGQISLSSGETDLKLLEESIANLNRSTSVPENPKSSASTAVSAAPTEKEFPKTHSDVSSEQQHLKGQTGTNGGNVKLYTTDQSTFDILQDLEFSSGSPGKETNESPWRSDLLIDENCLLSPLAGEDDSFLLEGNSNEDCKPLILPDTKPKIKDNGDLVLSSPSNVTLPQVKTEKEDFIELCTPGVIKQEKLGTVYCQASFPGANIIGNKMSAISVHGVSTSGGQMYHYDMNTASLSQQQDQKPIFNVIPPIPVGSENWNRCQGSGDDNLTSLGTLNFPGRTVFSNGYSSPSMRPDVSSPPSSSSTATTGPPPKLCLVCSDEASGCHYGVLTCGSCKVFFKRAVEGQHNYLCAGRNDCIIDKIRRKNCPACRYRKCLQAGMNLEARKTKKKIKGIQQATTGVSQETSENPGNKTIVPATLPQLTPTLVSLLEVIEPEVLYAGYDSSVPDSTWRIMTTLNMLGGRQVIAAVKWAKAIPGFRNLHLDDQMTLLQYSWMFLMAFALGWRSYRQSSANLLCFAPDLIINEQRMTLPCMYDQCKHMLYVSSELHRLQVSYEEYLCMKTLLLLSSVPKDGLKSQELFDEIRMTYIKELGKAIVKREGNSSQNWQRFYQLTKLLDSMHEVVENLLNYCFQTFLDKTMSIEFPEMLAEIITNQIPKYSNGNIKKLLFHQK
Assay: Glucocorticoid Receptor Binding Assay (Glucocorticoid Receptor Competitor Assay far red kit, fluorescence polarization)
Conditions: competition with fluorescent GR ligand Fluormone GS Far Red, 3 hours at 22° C., pH 7.4; Ki calculated from IC50 by Cheng-Prusoff
In short: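 Fluorescence polarization competition with partially purified full-length human recombinant GR, stabilizing peptide and Fluormone GS Far Red tracer in screening buffer pH 7.4; 3 hours at 22° C in the dark, read at 610–660 nm. IC50 from sigmoidal fit; Ki by Cheng-Prusoff.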

| Structure (SMILES) | Ki |
| --- | --- |
| C[C@H](c1ccc(Br)cc1C(F)(F)F)[C@@](O)(c1ccc2oc(=O)n(C)c2c1)C(F)(F)F (relative stereo) [Example 193, 5-[2-(4-Bromo-2-trifluoromethyl-phenyl)-1-hydroxy-1-trifluoromethyl-propyl]-3-methyl-3H-benzooxazol-2-one] | 0.9 nM |
| C[C@H](c1ccc(-c2cncnc2)cc1Cl)[C@@](O)(c1ccc2oc(=O)n(C)c2c1)C(F)(F)F (relative stereo) [Example 194, 5-[2-(2-Chloro-4-pyrimidin-5-yl-phenyl)-1-hydroxy-1-trifluoromethyl-propyl]-3-methyl-3H-benzooxazol-2-one] | 0.7 nM |
| COC(=O)c1ccc(Oc2ccc([C@@H](C)[C@@](O)(c3ccc4oc(=O)n(C)c4c3)C(F)(F)F)c(Cl)c2)nn1 (relative stereo) [Example 199, 6-{3-Chloro-4-[3,3,3-trifluoro-2-hydroxy-1-methyl-2-(3-methyl-2-oxo-2,3-dihydro-benzooxazol-5-yl)-propyl]-phenoxy}-pyridazine-3-carboxylic acid methyl ester] | 2.1 nM |
| C[C@H](c1ccc(Oc2ccc(C(=O)O)nn2)cc1Cl)[C@@](O)(c1ccc2oc(=O)n(C)c2c1)C(F)(F)F (relative stereo) [Example 201, 6-{3-Chloro-4-[3,3,3-trifluoro-2-hydroxy-1-methyl-2-(3-methyl-2-oxo-2,3-dihydro-benzooxazol-5-yl)-propyl]-phenoxy}-pyridazine-3-carboxylic acid] | 3.9 nM |
| C[C@H](c1ccc(Oc2ncc(C(=O)O)cn2)cc1Cl)[C@@](O)(c1ccc2oc(=O)n(C)c2c1)C(F)(F)F (relative stereo) [Example 203, 2-{3-Chloro-4-[3,3,3-trifluoro-2-hydroxy-1-methyl-2-(3-methyl-2-oxo-2,3-dihydro-benzooxazol-5-yl)-propyl]-phenoxy}-pyrimidine-5-carboxylic acid] | 1.8 nM |
| COC(=O)c1ccc(Oc2ccc([C@@H](C)[C@@](O)(c3ccc4c(c3)N(C)C(=O)CO4)C(F)(F)F)c(Cl)c2)cc1Cl (single isomer, unassigned) [Example 216] | 60.2 nM |
| COC(=O)c1ccc(Oc2ccc([C@H](C)[C@](O)(c3ccc4c(c3)N(C)C(=O)CO4)C(F)(F)F)c(Cl)c2)cc1Cl (single isomer, unassigned) [Example 217] | 1 nM |
| CCOC(=O)COc1ccc(Cl)c([C@H](C)[C@](O)(c2ccc3c(c2)N(C)C(=O)CO3)C(F)(F)F)c1 (stereo in doubt) [Example 3, {4-Chloro-3-[3,3,3-trifluoro-2-hydroxy-1-methyl-2-(4-methyl-3-oxo-3,4-dihydro-2H-benzo[1,4]oxazin-6-yl)-propyl]-phenoxy}-acetic acid ethyl ester] | 9.2 nM |
| C[C@@H](c1cc(Oc2cccc(C(=O)O)c2)ccc1Cl)[C@](O)(c1ccc2c(c1)N(C)C(=O)CO2)C(F)(F)F (stereo in doubt) [Example 6, 3-{4-Chloro-3-[3,3,3-trifluoro-2-hydroxy-1-methyl-2-(4-methyl-3-oxo-3,4-dihydro-2H-benzo[1,4]oxazin-6-yl)-propyl]-phenoxy}-benzoic acid] | 4.8 nM |
| C[C@@H](c1ccc(-c2ccc(C(=O)O)cc2)cc1Cl)[C@](O)(c1ccc2c(c1)N(C)C(=O)CO2)C(F)(F)F (stereo in doubt) [Example 22, 3′-Chloro-4′-[3,3,3-trifluoro-2-hydroxy-1-methyl-2-(4-methyl-3-oxo-3,4-dihydro-2H-benzo[1,4]oxazin-6-yl)-propyl]-biphenyl-4-carboxylic acid] | 2.9 nM |
| C[C@@H](c1ccc(-c2ccc(C(=O)O)cc2F)cc1Cl)[C@](O)(c1ccc2c(c1)N(C)C(=O)CO2)C(F)(F)F (stereo in doubt) [Example 34, 3′-Chloro-2-fluoro-4′-[3,3,3-trifluoro-2-hydroxy-1-methyl-2-(4-methyl-3-oxo-3,4-dihydro-2H-benzo[1,4]oxazin-6-yl)-propyl]-biphenyl-4-carboxylic acid] | 7.8 nM |
| C[C@@H](c1ccc(-c2ccc(F)c(OCC(=O)O)c2)cc1Cl)[C@](O)(c1cc(F)c2c(c1)N(C)C(=O)CO2)C(F)(F)F (stereo in doubt) [Example 48, {3′-Chloro-4-fluoro-4′-[3,3,3-trifluoro-2-(8-fluoro-4-methyl-3-oxo-3,4-dihydro-2H-benzo[1,4]oxazin-6-yl)-2-hydroxy-1-methyl-propyl]-biphenyl-3-yloxy}-acetic acid] | 1.3 nM |
| COC(=O)c1ccc(-c2ccc([C@H](C)[C@](O)(c3ccc(=O)n4ccccc34)C(F)(F)F)c(Cl)c2)cc1F (stereo in doubt) [Example 49, 3′-Chloro-3-fluoro-4′-[3,3,3-trifluoro-2-hydroxy-1-methyl-2-(4-oxo-4H-quinolizin-1-yl)-propyl]-biphenyl-4-carboxylic acid methyl ester] | 16 nM |
| COC(=O)c1ccc(-c2ccc([C@@H](C)[C@@](O)(c3cnc4c(c3)N(C)C(=O)CO4)C(F)(F)F)c(Cl)c2)cc1F (stereo in doubt) [Example 51, 3′-Chloro-3-fluoro-4′-[3,3,3-trifluoro-2-hydroxy-1-methyl-2-(1-methyl-2-oxo-2,3-dihydro-1H-pyrido[2,3-b][1,4]oxazin-7-yl)-propyl]-biphenyl-4-carboxylic acid methyl ester] | 20.8 nM |
| C[C@H](c1ccc(-c2ccc(C(=O)O)c(F)c2)cc1Cl)[C@@](O)(c1cnc2c(c1)N(C)C(=O)CO2)C(F)(F)F (stereo in doubt) [Example 52, 3′-Chloro-3-fluoro-4′-[3,3,3-trifluoro-2-hydroxy-1-methyl-2-(1-methyl-2-oxo-2,3-dihydro-1H-pyrido[2,3-b][1,4]oxazin-7-yl)-propyl]-biphenyl-4-carboxylic acid] | 122 nM |

The remaining lines, values ahead:

| Ki | Structure (SMILES) |
| --- | --- |
| 1.7 nM | COC(=O)c1ccc(-c2ccc([C@@H](C)[C@@](O)(c3ccc4oc(=O)n(C)c4c3)C(F)(F)F)c(C(F)(F)F)c2)cc1F (relative stereo) [Example 198, 3-Fluoro-4′-[3,3,3-trifluoro-2-hydroxy-1-methyl-2-(3-methyl-2-oxo-2,3-dihydro-benzooxazol-5-yl)-propyl]-3′-trifluoromethyl-biphenyl-4-carboxylic acid methyl ester] |
| 1.8 nM | COC(=O)c1cnc(Oc2ccc([C@@H](C)[C@@](O)(c3ccc4oc(=O)n(C)c4c3)C(F)(F)F)c(Cl)c2)nc1 (relative stereo) [Example 202, 2-{3-Chloro-4-[3,3,3-trifluoro-2-hydroxy-1-methyl-2-(3-methyl-2-oxo-2,3-dihydro-benzooxazol-5-yl)-propyl]-phenoxy}-pyrimidine-5-carboxylic acid methyl ester] |
| 1.6 nM | COC(=O)c1cnc(Oc2ccc([C@H](C)[C@](O)(c3ccc4c(c3)N(C)C(=O)CO4)C(F)(F)F)c(Cl)c2)c(Cl)c1 (single isomer, unassigned) [Example 222] |
| 9.7 nM | CCOC(=O)c1ccc(COc2ccc(Cl)c([C@H](C)[C@](O)(c3ccc4c(c3)N(C)C(=O)CO4)C(F)(F)F)c2)cc1 (stereo in doubt) [Example 1, 4-{4-Chloro-3-[3,3,3-trifluoro-2-hydroxy-1-methyl-2-(4-methyl-3-oxo-3,4-dihydro-2H-benzo[1,4]oxazin-6-yl)-propyl]-phenoxymethyl}-benzoic acid ethyl ester] |
| 1.3 nM | C[C@@H](c1ccc(-c2cccc(C(=O)O)c2)cc1Cl)[C@](O)(c1ccc2c(c1)N(C)C(=O)CO2)C(F)(F)F (stereo in doubt) [Example 23, 3′-Chloro-4′-[3,3,3-trifluoro-2-hydroxy-1-methyl-2-(4-methyl-3-oxo-3,4-dihydro-2H-benzo[1,4]oxazin-6-yl)-propyl]-biphenyl-3-carboxylic acid] |
| 1.5 nM | C[C@@H](c1ccc(-c2ccc(Cl)c(C(=O)O)c2)cc1Cl)[C@](O)(c1ccc2c(c1)N(C)C(=O)CO2)C(F)(F)F (stereo in doubt) [Example 40, 4,3′-Dichloro-4′-[3,3,3-trifluoro-2-hydroxy-1-methyl-2-(4-methyl-3-oxo-3,4-dihydro-2H-benzo[1,4]oxazin-6-yl)-propyl]-biphenyl-3-carboxylic acid] |
| 4 nM | CCOC(=O)C1CCN(c2ccc([C@H](C)[C@](O)(c3ccc4c(c3)N(C)C(=O)CO4)C(F)(F)F)c(Cl)c2)CC1 (stereo in doubt) [Example 42, 1-{3-Chloro-4-[3,3,3-trifluoro-2-hydroxy-1-methyl-2-(4-methyl-3-oxo-3,4-dihydro-2H-benzo[1,4]oxazin-6-yl)-propyl]-phenyl}-piperidine-4-carboxylic acid ethyl ester] |
| 48.7 nM | C[C@@H](c1ccc(-c2ccc(C(=O)O)c(F)c2)cc1Cl)[C@](O)(c1ccc(=O)n2ccccc12)C(F)(F)F (stereo in doubt) [Example 50, 3′-Chloro-3-fluoro-4′-[3,3,3-trifluoro-2-hydroxy-1-methyl-2-(4-oxo-4H-quinolizin-1-yl)-propyl]-biphenyl-4-carboxylic acid] |
